Measured values from ChEMBL document CHEMBL2406973, “Synthesis of novel diarylamino-1,3,5-triazine derivatives as FAK inhibitors with anti-angiogenic activity” (Bioorg Med Chem Lett, 2013).

Columns and labels:
HUVEC = experiment: Antiangiogenic activity in HUVEC assessed as inhibition of VEGF-stimulated proliferation after 72 hrs by WST-1 assay; type: functional, cell-based; conditions: Homo sapiens
Focal adhesion kinase 1 = Focal adhesion kinase 1 (Homo sapiens, UniProt Q05397); experiment: Inhibition of pre-activated recombinant full length FAK (unknown origin) using ULight labeled poly(Glu/Tyr) as substrate after 1.6 hrs by TR-FRET assay
Chain of Focal adhesion kinase 1 (Q05397 whole entry): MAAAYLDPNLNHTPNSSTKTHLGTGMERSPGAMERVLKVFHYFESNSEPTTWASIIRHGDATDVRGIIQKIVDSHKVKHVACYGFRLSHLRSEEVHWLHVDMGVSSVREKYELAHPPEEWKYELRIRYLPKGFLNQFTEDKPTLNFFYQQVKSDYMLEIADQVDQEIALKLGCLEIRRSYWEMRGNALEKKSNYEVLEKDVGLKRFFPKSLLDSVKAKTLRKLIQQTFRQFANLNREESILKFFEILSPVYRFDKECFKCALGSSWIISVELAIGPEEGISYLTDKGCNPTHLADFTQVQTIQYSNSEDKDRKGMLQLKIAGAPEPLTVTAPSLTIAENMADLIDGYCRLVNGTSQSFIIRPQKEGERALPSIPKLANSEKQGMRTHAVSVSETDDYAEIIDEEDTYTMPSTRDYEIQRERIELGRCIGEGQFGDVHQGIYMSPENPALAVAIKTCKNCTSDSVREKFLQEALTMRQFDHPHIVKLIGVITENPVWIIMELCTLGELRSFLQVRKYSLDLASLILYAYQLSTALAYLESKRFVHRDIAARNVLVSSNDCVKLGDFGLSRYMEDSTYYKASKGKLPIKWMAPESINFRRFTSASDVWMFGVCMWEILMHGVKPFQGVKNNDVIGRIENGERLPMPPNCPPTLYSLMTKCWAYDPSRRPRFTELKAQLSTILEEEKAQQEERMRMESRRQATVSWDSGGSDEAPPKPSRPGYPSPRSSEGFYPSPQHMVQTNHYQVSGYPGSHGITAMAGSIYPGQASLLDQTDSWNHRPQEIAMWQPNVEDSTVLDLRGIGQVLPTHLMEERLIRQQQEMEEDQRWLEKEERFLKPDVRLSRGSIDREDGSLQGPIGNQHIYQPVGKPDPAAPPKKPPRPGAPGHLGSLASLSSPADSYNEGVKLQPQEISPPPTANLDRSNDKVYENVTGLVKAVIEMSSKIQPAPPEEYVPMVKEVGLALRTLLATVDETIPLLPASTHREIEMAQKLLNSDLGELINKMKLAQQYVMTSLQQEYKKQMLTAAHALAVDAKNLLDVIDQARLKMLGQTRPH

| Structure (SMILES) | IC50 (Focal adhesion kinase 1) [µM] | IC50 (HUVEC) [µM] |
| --- | --- | --- |
| CC(C)NC(=O)c1ccccc1Nc1ncnc(Nc2ccc(CN)cc2)n1 | 1 | 3.2 |
| CCC(CC)NC(=O)c1ccccc1Nc1ncnc(Nc2ccc(CN)cc2)n1 | 1.9 | 1.4 |
| COc1ccc(Nc2ncnc(Nc3ccccc3NS(C)(=O)=O)n2)c(OC)c1 | 6.1 | 2.7 |
| CNC(=O)c1ccccc1Nc1ncnc(Nc2ccc(OC)cc2OC)n1 | 1.5 | 6.5 |
| COc1ccc(Nc2ncnc(Nc3ccccc3NC(C)=O)n2)c(OC)c1 | 21.1 | 11.2 |
| CNC(=O)c1ccccc1Nc1ncnc(Nc2ccc(N3CCOCC3)cc2OC)n1 |  | 1.5 |
| CS(=O)(=O)Nc1ccccc1Nc1ncnc(Nc2ccc(CN)cc2)n1 | 2.3 | 3.9 |
| CNC(=O)c1ccccc1Nc1ncnc(Nc2ccc(CN)cc2)n1 | 0.16 | 2.1 |
| CCNC(=O)c1ccccc1Nc1ncnc(Nc2ccc(CN)cc2)n1 | 0.44 | 2.8 |
| COc1cc(Nc2nc(Cl)nc(Nc3ccccc3NS(C)(=O)=O)n2)cc(OC)c1OC | 41.9 | 9.5 |
| CNc1nc(Nc2cc(OC)c(OC)c(OC)c2)nc(Nc2ccccc2NS(C)(=O)=O)n1 | 65.9 | 34.2 |
| COc1cc(Nc2nc(Cl)nc(Nc3cccc(NS(C)(=O)=O)c3)n2)cc(OC)c1OC | 57.8 | 13.3 |
| CNc1nc(Nc2cccc(NS(C)(=O)=O)c2)nc(Nc2cc(OC)c(OC)c(OC)c2)n1 | 41.3 | 10 |
| COc1cc(Nc2nc(C)nc(Nc3ccccc3NC(=O)N(C)C)n2)cc(OC)c1OC | 54.3 | 27.3 |
| COc1cc(Nc2nc(Nc3ccccc3NC(C)=O)nc(C(F)(F)F)n2)cc(OC)c1OC | 126 | 33.3 |
| CNC(=O)c1ccccc1Nc1nc(Nc2ccc(N3CCOCC3)cc2OC)ncc1Cl |  | 1 |

Now from value to compound, other results behind:

| IC50 (Focal adhesion kinase 1) [µM] | Structure (SMILES) | IC50 (HUVEC) [µM] |
| --- | --- | --- |
| 2.2 | COc1cc(Nc2ncnc(Nc3ccccc3C(=O)NC(C)C)n2)cc(OC)c1OC | 4 |
| 6.1 | COc1cc(Nc2ncnc(Nc3ccccc3C(=O)NC3CC3)n2)cc(OC)c1OC | 5.9 |
| 6 | CCC(CC)NC(=O)c1ccccc1Nc1ncnc(Nc2cc(OC)c(OC)c(OC)c2)n1 | 5.3 |
| 5.2 | COc1cc(Nc2ncnc(Nc3ccccc3C(=O)NC3CCCC3)n2)cc(OC)c1OC | 3.9 |
| 23.8 | COc1cc(Nc2ncnc(Nc3ccccc3C(=O)NCCO)n2)cc(OC)c1OC | 17.5 |
| 10.2 | COc1cc(Nc2ncnc(Nc3ccccc3C(=O)NCCN(C)C)n2)cc(OC)c1OC | 9.4 |
| 17.9 | COC(=O)c1ccccc1Nc1ncnc(Nc2cc(OC)c(OC)c(OC)c2)n1 | 23.2 |
| 0.3 | CNC(=O)c1ccccc1Nc1ncnc(Nc2cc(CCC(N)=O)c(OC)c(OC)c2)n1 | 1.3 |
| 5.1 | COc1cc(Nc2ncnc(Nc3ccccc3NS(C)(=O)=O)n2)cc(OC)c1OC | 6.1 |
| 9.2 | COc1cc(Nc2ncnc(Nc3cccc(NS(C)(=O)=O)c3)n2)cc(OC)c1OC | 7.2 |
| 7.9 | COc1cc(Nc2nc(C)nc(Nc3ccccc3NS(C)(=O)=O)n2)cc(OC)c1OC | 8.5 |
| 50.8 | COc1cc(Nc2nc(C)nc(Nc3ccccc3NC(C)=O)n2)cc(OC)c1OC | 18.8 |
| 35.9 | COC(=O)Nc1ccccc1Nc1nc(C)nc(Nc2cc(OC)c(OC)c(OC)c2)n1 | 15.8 |
| 0.4 | CNC(=O)c1ccccc1Nc1ncnc(Nc2cc(OC)c(OC)c(OC)c2)n1 | 2.5 |
